The results in this text go back to ChEMBL document CHEMBL1201862, “PubChem BioAssay data set” (2004).

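Values below derive from 48-hour exposures of cells grown in 96-well plates, with endpoints linearly interpolated between the two concentrations bracketing the appropriate inhibition level. Abbreviation: GI50, concentration required for 50% inhibition of growth.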 Calls of active or inactive are those of the source. Cut-off read from the data, not from the text of the source: active = GI50 up to about 1.1 µM and inactive = higher.

Some test systems named below: Malme-3M; SF-268; DLD-1; SNB-19; COLO 205; NCI-H226; SK-OV-3; SNB-75; UO-31; CCRF-CEM; SK-MEL-5; SF-295; SN12C; HCC 2998; NCI-H23; OVCAR-5; UACC-257; A498; MDA-N; MDA-MB-231.
Test in all cases: NCI anticancer screen, dose series, 48 h

On to `C/C(=C1/CCCC2(N=NCC2c2ccccc2)C1=O)c1ccccc1` (centres undefined), for which the GI50 with Malme-3M was 21 µM (inactive); in the experiment with SF-268, 65.3 µM (inactive); in the experiment with DLD-1, 38.3 µM (inactive); in the experiment with SNB-19, 66.4 µM (inactive); in the experiment with COLO 205, 16.5 µM (inactive); in the experiment on NCI-H226 it was 16 µM (inactive). Moreover, the GI50 is 30.7 µM (inactive) in the experiment on SK-OV-3; 30.3 µM (inactive) in the experiment on SNB-75; 20.9 µM (inactive) in the experiment with UO-31; 19.6 µM (inactive) with CCRF-CEM; 12.7 µM (inactive) in the experiment with SK-MEL-5; 30.9 µM (inactive) with SF-295. The GI50 with SN12C was 40.5 µM (inactive); in the experiment on HCC 2998 it was 38.2 µM (inactive); with NCI-H23, 16.6 µM (inactive); with OVCAR-5, 36 µM (inactive); in the experiment on UACC-257, 22.1 µM (inactive).
Regarding `O=C(Nc1nc2ncn(CCO)c2c(=S)[nH]1)c1ccccc1`, the GI50 in the experiment on Malme-3M, in the experiment with SF-268, with DLD-1, with SNB-19, in the experiment with COLO 205 and with NCI-H226 was > 100 µM (inactive) throughout. Besides, the GI50 in the experiment on SK-OV-3, in the experiment with A498, in the experiment on SNB-75, in the experiment on UO-31, with CCRF-CEM and with SK-MEL-5 was > 100 µM (inactive) throughout. The GI50 in the experiment on SF-295, in the experiment on SN12C, in the experiment on OVCAR-5 and with UACC-257 was > 100 µM (inactive) in each case.
As for `Cc1nc2cc(N)c(F)cc2[nH]1`, the GI50 with Malme-3M, in the experiment with SF-268, with DLD-1, with SNB-19, with COLO 205 and in the experiment on NCI-H226 was > 100 µM (inactive) each time. The GI50 in the experiment on SK-OV-3, in the experiment with A498, in the experiment on UO-31, in the experiment with CCRF-CEM, in the experiment on SK-MEL-5 and in the experiment with SF-295 was > 100 µM (inactive) throughout. In addition, the GI50 with SN12C, with NCI-H23, in the experiment with OVCAR-5 and in the experiment with UACC-257 was > 100 µM (inactive) in each case.
`COC(=O)C(Cc1nc2ccc(Cl)cc2nc1O)/C(=N\N)C(=O)Nc1cc(C)c(Cl)cc1S(=O)(=O)O` (centres undefined): the GI50 in the experiment on Malme-3M is > 100 µM (inactive); with SF-268 it was > 100 µM (inactive); with DLD-1 it was > 100 µM (inactive); with SNB-19, > 100 µM (inactive); in the experiment with COLO 205, > 100 µM (inactive); in the experiment on NCI-H226, 47.1 µM (inactive). Moreover, the GI50 in the experiment with SK-OV-3 was > 100 µM (inactive); with A498, 70.3 µM (inactive); in the experiment with UO-31, > 100 µM (inactive); with CCRF-CEM, 43.1 µM (inactive); in the experiment on SK-MEL-5 it was > 100 µM (inactive); in the experiment on SF-295, > 100 µM (inactive). For the same compound, the GI50 was > 100 µM (inactive) with SN12C; > 100 µM (inactive) in the experiment on HCC 2998; > 100 µM (inactive) with NCI-H23; 75.7 µM (inactive) in the experiment on OVCAR-5; > 100 µM (inactive) in the experiment with UACC-257.
As to `O=C1NC2=C(CCCCC/C2=N\O)C12CCCCCC2`, the GI50 in the experiment on Malme-3M, with SF-268, in the experiment with DLD-1, in the experiment with SNB-19, in the experiment with COLO 205 and in the experiment with SK-OV-3 was > 100 µM (inactive) in each case. Besides, the GI50 in the experiment on A498, with SNB-75, in the experiment with UO-31, in the experiment on CCRF-CEM, in the experiment on SK-MEL-5 and with SF-295 was > 100 µM (inactive) each time. Also, the GI50 in the experiment with SN12C, in the experiment on NCI-H23, in the experiment with OVCAR-5 and in the experiment on UACC-257 was > 100 µM (inactive) in each case.
For `CC#COP(=O)(OCC)OCC`, the GI50 with Malme-3M is > 100 µM (inactive); with SF-268 it was > 100 µM (inactive); in the experiment with DLD-1 it was > 100 µM (inactive); with SNB-19 it was > 100 µM (inactive); in the experiment on COLO 205 it was > 100 µM (inactive); with NCI-H226, 23.9 µM (inactive). Also, the GI50 with SK-OV-3 was > 100 µM (inactive); in the experiment on A498 it was 39.5 µM (inactive); in the experiment with UO-31, > 100 µM (inactive); in the experiment with CCRF-CEM it was 75 µM (inactive); with SK-MEL-5, > 100 µM (inactive); in the experiment with SF-295, > 100 µM (inactive). Also, the GI50 in the experiment with SN12C, in the experiment on HCC 2998, with NCI-H23, in the experiment on OVCAR-5 and in the experiment with UACC-257 was > 100 µM (inactive) in each case.
As for `CCCCCCCCCc1cc(=O)c2c(O)cc(O)cc2o1`, the GI50 in the experiment with Malme-3M is 16.4 µM (inactive); with SF-268, 3.82 µM (inactive); with SNB-19 it was 18.9 µM (inactive); in the experiment on COLO 205, 27.2 µM (inactive); in the experiment with NCI-H226, 17.8 µM (inactive); in the experiment with SK-OV-3 it was 17.1 µM (inactive). In addition, the GI50 with A498 was 18.1 µM (inactive); with SNB-75, 18.1 µM (inactive); with UO-31, 16.9 µM (inactive); in the experiment with CCRF-CEM it was 24.3 µM (inactive); in the experiment with SK-MEL-5 it was 19.8 µM (inactive); with MDA-N, > 100 µM (inactive). Further, the GI50 with SF-295 is 18.7 µM (inactive); in the experiment with SN12C, 22.2 µM (inactive); in the experiment with MDA-MB-231, > 100 µM (inactive); in the experiment with HCC 2998 it was 21.1 µM (inactive); with NCI-H23, 18.5 µM (inactive); in the experiment with OVCAR-5, 16.6 µM (inactive). In the experiment with UACC-257, the GI50 is 19.7 µM (inactive).
With `CC(C)(C)OC(=O)NC1CC2(C=C(Br)C(=O)C(Br)=C2)OC1=O` (centres undefined), the GI50 in the experiment with Malme-3M is 6.24 µM (inactive); in the experiment with SF-268, 17.4 µM (inactive); in the experiment with SNB-19, 20.7 µM (inactive); with COLO 205, 3.59 µM (inactive); in the experiment on NCI-H226, 18.1 µM (inactive); in the experiment on SK-OV-3 it was 17.3 µM (inactive). Besides, the GI50 is 23.3 µM (inactive) with A498; 21.5 µM (inactive) in the experiment with SNB-75; 5.27 µM (inactive) in the experiment on UO-31; 0.165 µM (active) in the experiment with CCRF-CEM; 16.4 µM (inactive) in the experiment with SK-MEL-5; 5.74 µM (inactive) in the experiment with MDA-N. The GI50 in the experiment on SF-295 is 16.4 µM (inactive); in the experiment on SN12C it was 7.33 µM (inactive); in the experiment with MDA-MB-231 it was 17.7 µM (inactive); in the experiment with HCC 2998, 11.6 µM (inactive); in the experiment with NCI-H23 it was 7.85 µM (inactive); in the experiment with OVCAR-5, 18.3 µM (inactive). Besides, in the experiment on UACC-257, the GI50 is 5.4 µM (inactive).
Regarding `O=C1C(c2ccccc2)=[N+]([O-])c2ccccc21`, the GI50 with Malme-3M is 17.4 µM (inactive); with SF-268, 14.1 µM (inactive); in the experiment with SNB-19, 19 µM (inactive); in the experiment on COLO 205 it was 16.2 µM (inactive); in the experiment on NCI-H226, 17.1 µM (inactive); with SK-OV-3, 17.6 µM (inactive). In addition, the GI50 in the experiment with A498 was 17.9 µM (inactive); in the experiment with SNB-75, 17 µM (inactive); with UO-31 it was 16.2 µM (inactive); in the experiment on CCRF-CEM, 4.83 µM (inactive); with SK-MEL-5, 11.1 µM (inactive); with MDA-N, 3.29 µM (inactive). In addition, the GI50 is 17.4 µM (inactive) in the experiment with SF-295; 17.3 µM (inactive) in the experiment on SN12C; 11.7 µM (inactive) in the experiment with MDA-MB-231; 20 µM (inactive) with HCC 2998; 19.4 µM (inactive) with NCI-H23; 22.4 µM (inactive) in the experiment with OVCAR-5. For the same compound, in the experiment on UACC-257, the GI50 is 13.3 µM (inactive).
As to `CCCC(=O)Nc1cn(COC)c(C(=O)N2C[C@@H]3C[C@]34C2=CC(=O)c2[nH]cc(C)c24)n1`, the GI50 with Malme-3M is 1.72 µM (inactive); in the experiment on SF-268, 5.31 µM (inactive); in the experiment with SNB-19 it was 18.5 µM (inactive); in the experiment on COLO 205, 7.91 µM (inactive); in the experiment on NCI-H226 it was 10.5 µM (inactive); with SK-OV-3, 11.2 µM (inactive). In addition, the GI50 with A498 was 9.48 µM (inactive); in the experiment on SNB-75, 10.2 µM (inactive); in the experiment on UO-31 it was 12.3 µM (inactive); with CCRF-CEM, 1.27 µM (inactive); with SK-MEL-5, 4.36 µM (inactive); in the experiment on MDA-N, 9.29 µM (inactive). Moreover, the GI50 was 15.6 µM (inactive) in the experiment on SF-295; 11.2 µM (inactive) in the experiment with SN12C; 8.47 µM (inactive) in the experiment with MDA-MB-231; 5.31 µM (inactive) with HCC 2998; 2.9 µM (inactive) in the experiment with NCI-H23; 28.7 µM (inactive) in the experiment on OVCAR-5. Moreover, the GI50 in the experiment with UACC-257 was 8.13 µM (inactive).
In the case of `COc1cc2ncnc(Nc3cccc(Cl)c3)c2cc1OC` [TYRPHOSTIN AG-1478], the GI50 with Malme-3M was 6.28 µM (inactive); in the experiment with SF-268, 4.67 µM (inactive); in the experiment with SNB-19 it was 21 µM (inactive); in the experiment on COLO 205, 17.9 µM (inactive); with NCI-H226, 2.4 µM (inactive); in the experiment with SK-OV-3, 0.472 µM (active). Besides, the GI50 in the experiment with A498 is 2.54 µM (inactive); in the experiment on SNB-75, 2.57 µM (inactive); in the experiment on UO-31, 4.47 µM (inactive); with CCRF-CEM it was 3.82 µM (inactive); in the experiment on SK-MEL-5, 6.1 µM (inactive); in the experiment with MDA-N, 15.1 µM (inactive). Further, the GI50 in the experiment on SF-295 was 9.48 µM (inactive); in the experiment with SN12C it was 8.91 µM (inactive); in the experiment on MDA-MB-231, 14.2 µM (inactive); with HCC 2998, 13.6 µM (inactive); with NCI-H23, 14.6 µM (inactive); in the experiment on OVCAR-5, 9.46 µM (inactive). In the experiment with UACC-257, the GI50 is 7.57 µM (inactive).
